{"source": "patent US20150141506A1", "about": "“INDANE DIMERS FOR USE IN THE TREATMENT OF AUTOIMMUNE INFLAMMATORY DISEASE” (Venantius Limited, priority 2012, published 2015)", "key": {"[1]": {"test": "Solubility in Milli-RO water and pH buffers", "assay_type": "physicochemical", "experimental": "The sodium salt, potassium salt, calcium salt, α-methylbenzylamine salt and N-Methyl-(D)-Glucamine salt were synthesised.\nThe solubility of the four compounds were determined: […]"}, "[2]": {"test": "Plasma half-life in the rat", "assay_type": "in vivo", "details": "read-out: plasma half-life (t1/2) (converted)"}, "[3]": {"system": "5% DSS colitis in BALB/c mice", "test": "Acute murine 5% DSS colitis model, Experiment 1", "assay_type": "in vivo", "from_the_text": "The study is widely used as a model for studying the pathogenesis of UC and also for screening new therapeutic interventions for the treatment of UC.\nIn these studies, an acute colitis model was used, with 5% DSS administered in the drinking water of BALB/c mice. This dosage regime induces severe acute colitis, by days 7-8 mice had overt rectal bleeding and marked weight loss; unless sacrificed beforehand, all mice would have died by days 10-12.\nSpecific Pathogen-Free BALB/c mice, 6-8 weeks of age, were obtained from a commercial supplier (Harlan UK). Mice were fed irradiated diet and housed in individually ventilated cages (Tecniplast UK) under positive pressure.\nDSS (5%) was dissolved in drinking water. Compounds were administered orally at a dose of 10 mg/kg or 30 mg/kg on days 0-7, and mice were culled on day 8 or day 9, depending on the severity of the disease. The mice were checked each day for morbidity and the weight of individual mice was recorded. Induction of colitis was determined upon autopsy, length of colon and histology. Colons were recovered and stored at −20° C. for immunological analysis. All of the compounds and experimental groups are randomly alphabetically labelled. Throughout experiments all data recording was performed in a blind manner. The codes on boxes/groups were not broken until after the data was analysed i.e. boxes labelled A, B, C etc were identified as untreated, DSS-treated, or DSS+compound-treated.\nTo quantify the extent of colitis, a disease activity index (DAI) was determined based on weight loss, faecal blood and stool consistency. A score was given for each parameter, with the sum of the scores used as the DAI. For each treatment group n=8.\nAll compounds were prepared for oral gavage (0.1 mL per os (p.o.) per 10 g body weight) as a suspension in 0.5% carboxymethyl cellulose/2% Tween 80, at a dose of 3-30 mg/Kg."}, "[4]": {"test": "Partition coefficient (Log10 POW) by HPLC method", "assay_type": "physicochemical", "details": "reverse phase C18 HPLC"}, "[5]": {"system": "chronic colitis in IL10-/- BALB/c strain mice", "test": "Chronic IL10-/- colitis model", "assay_type": "in vivo", "details": "MWF", "experimental": "FIG. 15: Is a group showing weight loss in IL10^−−/−− mice treated with vehicle or compound 6. Mice were administered compound 6 (300 mg/kg/week) or vehicle orally on a Monday/Wednesday/Friday (MWF) dosing schedule. Mice were ˜4 weeks of age at start of experiment and were treated for 9 weeks. Mice were weighed weekly and data are presented as Mean±SEM from 9-12 mice per group. Mice were monitored for overt disease, rectal prolapse, and moribund animals were humanely killed;\nMice with a deletion in the IL10^−−/−− gene spontaneously develop chronic colitis, with the age of onset and the severity of the disease being dependent on background mouse strain and the conditions in which the animals are housed. The onset of colitis in IL10^−−/−− mice housed under the conditions used in this study was also strain dependent, with an earlier onset and greater severity, in terms of mortality, in BALB/c strain mice relative to C57BL/6 strain animals. In this experiment, animals received oral treatment on a MWF regime over 9 weeks. Initially, both groups of mice progressively gain weight (FIG. 15). […] By week 9 animals had marked weight loss, with one moribund animal humanely killed on day 60 in each group. As other mice were losing weight and developing clinical symptoms of disease, both groups were culled at week 9 (day 63) and analysed."}, "[6]": {"details": "3, 10 and 30 mg/Kg oral daily for 7 days"}}, "note": "“Also recorded” adds a separate entry of the source. Like-named read-outs stand apart in the source and are kept apart here."}
{"smiles": "O=C(O)c1ccc(C[C@@]2(C3=Cc4ccccc4C3)Cc3ccccc3[C@H]2O)cc1", "note": "[Compound 6]", "values": [{"measurement": "solubility", "setting": "[1]; Milli-RO water, water, read-out: solubility, Milli-RO H20", "result": "> 60000", "unit": "µg/mL"}, {"measurement": "solubility", "setting": "[1]; pH 4.0 buffer, pH 4, aqueous buffer, read-out: solubility, pH 4.0 Buffer", "result": 0.5, "unit": "µg/mL"}, {"measurement": "solubility", "setting": "[1]; pH 7.0 buffer, pH 7, aqueous buffer, read-out: solubility, pH 7.0 Buffer", "result": "> 60000", "unit": "µg/mL"}, {"measurement": "solubility", "setting": "[1]; pH 9.0 buffer, pH 9, aqueous buffer, read-out: solubility, pH 9.0 Buffer", "result": "> 3000", "unit": "µg/mL"}, {"measurement": "half-life", "setting": "[2]", "result": 3, "unit": "h"}, {"measurement": "colon pathology (histology score) relative to vehicle", "setting": "[3]; 10 mg/Kg", "result": "highly statistically significant reduction"}, {"measurement": "colon pathology (histology score) relative to vehicle", "setting": "[3]; 30 mg/Kg", "result": "highly statistically significant reduction"}, {"measurement": "overt reactions in mice", "setting": "[3]; [6]", "result": "caused no overt reactions"}, {"measurement": "severity of colitis, multiple parameters of disease", "setting": "[3]; [6]", "result": "ameliorated the severity of colitis; also recorded: dose-dependent"}, {"measurement": "DAI on the day of autopsy versus vehicle controls", "setting": "[3]; 3-30 mg/kg, each dose level", "result": "significantly (P<0.05-P<0.01) lower"}, {"measurement": "potency compared among the four enantiomers, in words", "setting": "[3]; 30 and 10 mg/kg", "result": "most potent of the four enantiomers"}, {"measurement": "efficacy relative to prednisolone at 5 mg/Kg", "setting": "[3]; compound 6 at 30 mg/Kg", "result": "comparable, or better; also recorded: comparable or better"}, {"measurement": "inhibition of colon shortening versus vehicle controls", "setting": "[3]; day 7, 3 mg/kg", "result": "did not have a significant effect"}, {"measurement": "inhibition of colon shortening versus vehicle controls", "setting": "[3]; day 7, 10 mg/kg", "result": "did have a significant effect"}, {"measurement": "disease activity index (DAI)", "setting": "[3]; day 7, 10 mg/kg daily for 7 days, vehicle 9.3±0.51", "result": "3.3±0.52"}, {"measurement": "colon cytokine levels (IL1β, TNFα, IL6)", "setting": "[3]; day 7, 30 mg/kg", "result": "significant (P<0.05, 30 mg/kg) and dose-dependant reduction"}, {"measurement": "inhibition of colon shortening versus vehicle controls", "setting": "[3]; day 7, 30 mg/kg", "result": "did have a significant effect; also recorded: significantly better than Prednisolone"}, {"measurement": "reduction of colonic myeloperoxidase (MPO) activity", "setting": "[3]; day 7, 30 mg/kg", "result": 63, "unit": "%"}, {"measurement": "Log10 POW, Acid", "setting": "[4]; acidic pH", "result": 2.6}, {"measurement": "Log10 POW, Basic", "setting": "[4]; alkaline pH", "result": 4.3}, {"measurement": "Log10 POW, Neutral", "setting": "[4]; neutral pH", "result": 3.5}, {"measurement": "survival by Kaplan-Meier analysis versus vehicle", "setting": "[5]; 300 mg/kg/week oral, 9 weeks", "result": "no statistical difference in survival"}, {"measurement": "weight loss and deaths from colitis relative to vehicle, in words", "setting": "[5]; 300 mg/kg/week oral, 9 weeks", "result": "delayed weight loss and reduced deaths from colitis"}, {"measurement": "mortalities", "setting": "[5]; 300 mg/kg/week oral, 9 weeks, vehicle 25%", "result": 9.2, "unit": "%"}, {"measurement": "weight gain maintained until", "setting": "[5]; 300 mg/kg/week oral, vehicle stopped gaining from week 5", "result": 8, "unit": "week"}, {"measurement": "Serum Amyloid A (SAA) levels relative to vehicle", "setting": "[5]; week 9, 300 mg/kg/week oral", "result": "significantly (P<0.05; Student's t-test) reduced"}, {"measurement": "extent of colon pathology (histology score) relative to vehicle", "setting": "[5]; week 9, 300 mg/kg/week oral", "result": "significantly reduced"}]}
